# Where two headings read alike, the source gives them in different places.
# Key:
# Type in all cases: cell-based
# C. albicans ATCC90028 = test: Antifungal activity test, MIC by broth microdilution (CLSI M27-A3); conditions: C. albicans ATCC90028, broth microdilution, 35° C., 24-48 hours, 100% inhibition
# Method: (§1) The Minimum Inhibitory Concentration (MIC) values of the present compound against yeast and filamentous fungi were determined by broth microdilution assay according to the Clinical Laboratory Standards Institute (CLSI) guidelines outlined in documents M27-A3 and M38-A2. The medium used in the assay consisted of RPMI1640 (with glutamine, without bicarbonate) with 2% glucose and 0.165 mol/L morpholinepropanesulfonic acid (MOPS) with pH adjusted to 7.0 using 1 mol/L sodium hydroxide. The present compound was dissolved in dimethyl sulfoxide (DMSO). A series of two-fold dilutions were prepared in DMSO, and then 2 μL of the diluted compound was added to each well in 96-well sterile plates. Each inoculum was prepared by diluting a suspension of Candida spp. or a conidia suspension of Aspergillus spp. suspended in sterile saline solution, and then 200 μL was added to each well to a predetermined concentration using RPMI/MOPS (final concentration for each solution: approximately 1×10^3 cells/mL and approximately 1×10^4 CFU/mL). Plates of Candida spp. and Aspergillus spp. were incubated at 35° C. for 24-48 hours. The MIC was defined as the lowest concentration giving 100% inhibition compared to the growth control.
# A. flavus ATCC204304 = test: Antifungal activity test, MIC by broth microdilution (CLSI M38-A2); conditions: A. flavus ATCC204304, broth microdilution, 35° C., 24-48 hours, 100% inhibition
# Method: as §1
# A. fumigatus ATCC204305 = test: as above; conditions: A. fumigatus ATCC204305, broth microdilution, 35° C., 24-48 hours, 100% inhibition
# Method: as §1
# [1] = system: red blood cells (5% RBC suspension); test: Test Example 2-1: in vitro hemolytic activity test (upper limit 50, 80, 100 or 200 μmol/L); conditions: read-out: hemolysis IC50
# Method: Nephrotoxic potentials of the compounds of the present invention except the compounds whose X is —N(R^F)—CO—X^1 and X^1 is the group represented by formula (III) and T is —N(R^a5)— were investigated by in vitro hemolytic activity test under the condition, in that, the upper limit was 50 μmol/L, 80 μmol/L, 100 μmol/L, or 200 μmol/L as the required concentration to 50% of hemolysis (IC50).
# Defibrinated sterile blood was centrifuged at 700×g for 3 minutes and, and the supernatant was removed for 100% of red blood cells. After the cleaning with physiological saline, the washed blood cells was suspended in the medium (Earle's balanced salt sodium, bicarbonate, 0.1 g/L L-glutamine without phenol red), and was diluted by 5% (5% RBC suspension).
# The washed blood was diluted by 5% in water for injection (solution of complete hemolysis), and was used as the indication of optical density for complete hemolysis.
# The compounds of the present invention solution in DMSO (several and doubling dilutions starting from 2.5 mmol/L, 4 mmol/L, 5 mmol/L, or 10 mmol/L), DMSO as the negative control, and Amphotericin B as the positive control were used, and each 5 μL of these was added in to a well of V-form 96 well type microplate.
# Finally, the maximum concentration of the compounds of the present invention solution in DMSO was 50 μmol/L, 80 μmol/L, 100 μmol/L, or 200 μmol/L by adding 245 μL of the medium or 5% RBC suspension into the well.
# Two hundred fifty μL of the solution of complete hemolysis was added into another well and the microplate was incubated at 37° C. in 5% of CO2 concentration for an hour.
# After the incubation, each 100 μL of supernatants in wells was collected by centrifugation of the microplate at 300×g for 5 minutes and was located on a well of flat-form 96 well type microplate. An absorbance of each supernatant was measured at wavelength of 540 nm.
# Percent hemolysis was calculated by using the followed equation. The required concentration to 50% of hemolysis (IC50) was calculated based on the percent hemolysis. […] Hemolysis (%)=(CR−VM)×100÷(VL−VR) Where:
# CR: Absorbance of 5% RBC suspension incubated with the compounds of the present invention solution in DMSO
# VM: Absorbance of medium incubated with the compounds of the present invention solution in DMSO
# VL: Absorbance of solution of complete hemolysis
# VR: Absorbance of 5% RBC suspension incubated with DMSO
# The “hemolysis method” in the table means any tests the upper concentration of above IC50 are 50 μmol/L, 80 μmol/L, 100 μmol/L or 200 μmol/L. The “>50”, “>80”, “>100” or “>200” in the table means above IC50 value exceeded the each upper concentration.
# [2] = Candida albicans, read-out: MIC
# [3] = Aspergillus flavus, read-out: MIC
# [4] = Aspergillus fumigatus, read-out: MIC
# [5] = hemolysis method 50 (upper concentration 50 μmol/L), 5% RBC suspension, 37° C., one hour
# [6] = Erythrocyte, 1 h, hemolysis method 50 (upper concentration 50 μmol/L), 5% RBC suspension, 37° C., one hour
# [7] = hemolysis method 100 (upper concentration 100 μmol/L), 5% RBC suspension, 37° C., one hour
smiles,measurement,setting,value
C[C@@H]1[C@H](O)[C@@H](C)/C=C/C=C/C=C/C=C/C=C/C=C/C=C/[C@H](O[C@@H]2O[C@H](C)[C@@H](O)[C@H](N)[C@@H]2O)C[C@@H]2O[C@](O)(C[C@@H](O)C[C@@H](O)[C@H](O)CC[C@@H](O)C[C@@H](O)CC(=O)O[C@H]1C)C[C@H](O)[C@H]2NC(N)=O [I-36],MIC,C. albicans ATCC90028; [2],0.25 µg/mL
same,MIC,A. flavus ATCC204304; [3],1 µg/mL
same,MIC,A. fumigatus ATCC204305; [4],1 µg/mL
CONC(=O)N[C@H]1[C@@H]2C[C@@H](O[C@@H]3O[C@H](C)[C@@H](O)[C@H](N)[C@@H]3O)/C=C/C=C/C=C/C=C/C=C/C=C/C=C/[C@H](C)[C@@H](O)[C@@H](C)[C@H](C)OC(=O)C[C@H](O)C[C@H](O)CC[C@@H](O)[C@H](O)C[C@H](O)C[C@](O)(C[C@@H]1O)O2 [I-59],MIC,C. albicans ATCC90028; [2],0.25 µg/mL
same,MIC,A. flavus ATCC204304; [3],1 µg/mL
same,MIC,A. fumigatus ATCC204305; [4],1 µg/mL
C[C@@H]1[C@H](O)[C@@H](C)/C=C/C=C/C=C/C=C/C=C/C=C/C=C/[C@H](O[C@@H]2O[C@H](C)[C@@H](O)[C@H](N)[C@@H]2O)C[C@@H]2O[C@](O)(C[C@@H](O)C[C@@H](O)[C@H](O)CC[C@@H](O)C[C@@H](O)CC(=O)O[C@H]1C)C[C@H](O)[C@H]2NC(=O)NCCNC(=N)N [I-67],MIC,C. albicans ATCC90028,0.25 µg/mL
same,MIC,A. flavus ATCC204304,1 µg/mL
same,MIC,A. fumigatus ATCC204305,1 µg/mL
C[C@@H]1[C@H](O)[C@@H](C)/C=C/C=C/C=C/C=C/C=C/C=C/C=C/[C@H](O[C@@H]2O[C@H](C)[C@@H](O)[C@H](N)[C@@H]2O)C[C@@H]2O[C@](O)(C[C@@H](O)C[C@@H](O)[C@H](O)CC[C@@H](O)C[C@@H](O)CC(=O)O[C@H]1C)C[C@H](O)[C@H]2NC(=O)NCC(N)=O [I-90],MIC,C. albicans ATCC90028,0.25 µg/mL
same,MIC,A. flavus ATCC204304,0.5 µg/mL
same,MIC,A. fumigatus ATCC204305,0.5 µg/mL
CON(C)C(=O)N[C@H]1[C@@H]2C[C@@H](O[C@@H]3O[C@H](C)[C@@H](O)[C@H](N)[C@@H]3O)/C=C/C=C/C=C/C=C/C=C/C=C/C=C/[C@H](C)[C@@H](O)[C@@H](C)[C@H](C)OC(=O)C[C@H](O)C[C@H](O)CC[C@@H](O)[C@H](O)C[C@H](O)C[C@](O)(C[C@@H]1O)O2 [I-282],IC50,[1]; [5],> 50 µM
C[C@@H]1[C@H](O)[C@@H](C)/C=C/C=C/C=C/C=C/C=C/C=C/C=C/[C@H](O[C@@H]2O[C@H](C)[C@@H](O)[C@H](N)[C@@H]2O)C[C@@H]2O[C@](O)(C[C@@H](O)C[C@@H](O)[C@H](O)CC[C@@H](O)C[C@@H](O)CC(=O)O[C@H]1C)C[C@H](O)[C@H]2NC(=O)N1CCC1C(=O)O (stereo partly drawn) [I-283],IC50,[1]; [5],> 50 µM
C[C@@H]1[C@H](O)[C@@H](C)/C=C/C=C/C=C/C=C/C=C/C=C/C=C/[C@H](O[C@@H]2O[C@H](C)[C@@H](O)[C@H](N)[C@@H]2O)C[C@@H]2O[C@](O)(C[C@@H](O)C[C@@H](O)[C@H](O)CC[C@@H](O)C[C@@H](O)CC(=O)O[C@H]1C)C[C@H](O)[C@H]2NC(=O)NC(C(=O)O)[C@H](C)O (stereo partly drawn) [I-291],IC50,[1]; [5],> 50 µM
C[C@@H]1[C@H](O)[C@@H](C)/C=C/C=C/C=C/C=C/C=C/C=C/C=C/[C@H](O[C@@H]2O[C@H](C)[C@@H](O)[C@H](N)[C@@H]2O)C[C@@H]2O[C@](O)(C[C@@H](O)C[C@@H](O)[C@H](O)CC[C@@H](O)C[C@@H](O)CC(=O)O[C@H]1C)C[C@H](O)[C@H]2NC(=O)N(O)C[C@@H](O)C(=O)O [I-295],IC50,[1]; [5],> 50 µM
C[C@@H]1[C@H](O)[C@@H](C)/C=C/C=C/C=C/C=C/C=C/C=C/C=C/[C@H](O[C@@H]2O[C@H](C)[C@@H](O)[C@H](N)[C@@H]2O)C[C@@H]2O[C@](O)(C[C@@H](O)C[C@@H](O)[C@H](O)CC[C@@H](O)C[C@@H](O)CC(=O)O[C@H]1C)C[C@H](O)[C@H]2NC(=O)N1CC(O[C@H]2OC(CO)[C@@H](O)[C@H](O)C2O)C1 (stereo partly drawn) [I-303],IC50,[1]; [6],> 50 µM
CNC(=O)N[C@H]1[C@@H]2C[C@@H](O[C@@H]3O[C@H](C)[C@@H](O)[C@H](NCc4ccc(N(C)C)cc4)[C@@H]3O)/C=C/C=C/C=C/C=C/C=C/C=C/C=C/[C@H](C)[C@@H](O)[C@@H](C)[C@H](C)OC(=O)C[C@H](O)C[C@H](O)CC[C@@H](O)[C@H](O)C[C@H](O)C[C@](O)(C[C@@H]1O)O2 [I-314],IC50,[1]; [7],> 80 µM
C[C@@H]1[C@H](O)[C@@H](C)/C=C/C=C/C=C/C=C/C=C/C=C/C=C/[C@H](O[C@@H]2O[C@H](C)[C@@H](O)[C@H](NC(=O)CN(C)C)[C@@H]2O)C[C@@H]2O[C@](O)(C[C@@H](O)C[C@@H](O)[C@H](O)CC[C@@H](O)C[C@@H](O)CC(=O)O[C@H]1C)C[C@H](O)[C@H]2NC(=O)NCCN(C)C [I-327],IC50,[1]; [7],> 50 µM
C[C@@H]1[C@H](O)[C@@H](C)/C=C/C=C/C=C/C=C/C=C/C=C/C=C/[C@H](O[C@@H]2O[C@H](C)[C@@H](O)[C@H](NCc3cccnc3N)[C@@H]2O)C[C@@H]2O[C@](O)(C[C@@H](O)C[C@@H](O)[C@H](O)CC[C@@H](O)C[C@@H](O)CC(=O)O[C@H]1C)C[C@H](O)[C@H]2NC(=O)NCCN(C)C [I-328],IC50,[1]; [7],> 50 µM
C[C@@H]1[C@H](O)[C@@H](C)/C=C/C=C/C=C/C=C/C=C/C=C/C=C/[C@H](O[C@@H]2O[C@H](C)[C@@H](O)[C@H](NC[C@@]3(O)OC[C@@H](O)[C@H](O)[C@@H]3O)[C@@H]2O)C[C@@H]2O[C@](O)(C[C@@H](O)C[C@@H](O)[C@H](O)CC[C@@H](O)C[C@@H](O)CC(=O)O[C@H]1C)C[C@H](O)[C@H]2NC(=O)NC[C@H](O)CO [I-368],IC50,[1]; [6],> 50 µM
C[C@@H]1[C@H](O)[C@@H](C)/C=C/C=C/C=C/C=C/C=C/C=C/C=C/[C@H](O[C@@H]2O[C@H](C)[C@@H](O)[C@H](N)[C@@H]2O)C[C@@H]2O[C@](O)(C[C@@H](O)C[C@@H](O)[C@H](O)CC[C@@H](O)C[C@@H](O)CC(=O)O[C@H]1C)C[C@H](O)[C@H]2c1nc(-c2ccc(N(C)C)cc2)no1 [I-390],IC50,"[1]; Erythrocyte, 1 h",> 50 µM
C[C@@H]1[C@H](O)[C@@H](C)/C=C/C=C/C=C/C=C/C=C/C=C/C=C/[C@H](O[C@@H]2O[C@H](C)[C@@H](O)[C@H](N)[C@@H]2O)C[C@@H]2O[C@](O)(C[C@@H](O)C[C@@H](O)[C@H](O)CC[C@@H](O)C[C@@H](O)CC(=O)O[C@H]1C)C[C@H](O)[C@H]2c1nc(-c2ccccc2)no1 [I-391],IC50,[1]; [6],> 50 µM
C[C@@H]1[C@H](O)[C@@H](C)/C=C/C=C/C=C/C=C/C=C/C=C/C=C/[C@H](O[C@@H]2O[C@H](C)[C@@H](O)[C@H](N)[C@@H]2O)C[C@@H]2O[C@](O)(C[C@@H](O)C[C@@H](O)[C@H](O)CC[C@@H](O)C[C@@H](O)CC(=O)O[C@H]1C)C[C@H](O)[C@H]2c1nc(-c2ccncc2)no1 [I-392],IC50,[1]; [6],> 50 µM
